This passage reports Angle of repose results from patent publication US20220370368A1, “ORAL PHARMACEUTICAL COMPOSITION COMPRISING A MELT-AGGLOMERATED ACTIVE INGREDIENT CORE” (Hermes Pharma GmbH, priority 2019, published 2022).

The data set can be described thus: Angle of repose according to Ph.Eur. chapter 2.9.36. The format is physicochemical. Conditions: prior to agglomeration. The source says:
Any flow property provisions such as “passable”, “poor” or “very poor” as used herein shall be understood as flow properties measured and ranked according to pharmacopoeial standards (e.g. European Pharmacopoeia, 6th edition, chapter 2.9.36) unless where specified otherwise: […]

Turning to `CN(C)CCOC(c1ccccc1)c1ccccc1.Cn1c(=O)c2[nH]c(Cl)nc2n(C)c1=O` [Dimenhydrinate], the Angle of repose amounted to 52 °.
